For experiment [1], the system named is CEM-TK(-). Briefly: (§1) Tested in vitro for the antiviral activity in CEM/TK- cells infected with HIV-1. The experiment is classed as functional. Conditions: Homo sapiens.
The subject of experiment [2] is CEM-TK(-). Described as §1. The experiment is classed as functional, cell-based. Conditions: Homo sapiens.
Experiment [3] relates to CEM-TK(-). The description is as §1. The experiment is classed as functional, Homo sapiens.
For experiment [4], the system named is CEM-SS. Briefly: (§2) Tested in vitro for the antiviral activity in CEM-SS cells infected with HIV-1. The experiment is classed as functional, Homo sapiens.
Experiment [5] has as its system CEM-SS. Described as §2. Format: functional, cell-based. Conditions: Homo sapiens.
The subject of experiment [6] is CEM-SS. The experiment is described as §2. The experiment is classed as functional. The following applies: Homo sapiens.
Experiment [7] deals with MT4. Briefly: (§3) Tested in vitro for the antiviral activity in MT-4 cells infected with HIV-1. Format: functional. The following applies: Homo sapiens.
For experiment [8], the system named is MT4. Described as §3. Format: functional, cell-based. The following applies: Homo sapiens.
The subject of experiment [9] is MT4. The experiment is described as §3. The experiment is classed as functional, Homo sapiens.
Experiment [10] in a line: (§4) Tested in vitro for the antiviral activity in PBM cells infected with HIV-1. The experiment is classed as functional, cell-based. Conditions: Homo sapiens, PBMC.
Experiment [11] is described as follows: as §4. Format: functional. Conditions: Homo sapiens, PBMC.

For 2 molecules, CC50, EC50 and Reduction results are on record in ChEMBL document CHEMBL1150489, “Increase of the anti-HIV activity of D4T in human T-cell culture by the use of the sate pronucleotide approach” (Bioorg Med Chem Lett, 1995).

Broadly, the CC50 is the concentration giving 50% cytotoxicity. High values mean lower toxicity to the cells, low ones greater toxicity to the cells. As a reminder, the EC50 is the concentration at which the effect is half-maximal. The low end stands for higher potency in that assay, the high end for lower potency in that assay.

With `Cc1cn([C@H]2C=C[C@@H](CO)O2)c(=O)[nH]c1=O` [STAVUDINE], the CC50 with CEM-TK(-) [1] was > 100 µM; with CEM-SS [6] it was > 100 µM; in the experiment with MT4 [7], > 100 µM; in [11], 42 µM. The EC50 in the experiment with CEM-TK(-) [2] is 10 µM; in the experiment on CEM-SS [5], 0.059 µM; in the experiment on MT4 [8], 0.28 µM; in [10] it was 0.05 µM. Also, the figures for the Reduction in the experiment on CEM-TK(-) [3], with CEM-SS [4] and with MT4 [9] were 6%, 21% and 10%, respectively.

On to `CC(=O)SCCOP(=O)(OCCSC(C)=O)OCC1C=CC(n2cc(C)c(=O)[nH]c2=O)O1` (stereo not given), for which the CC50 was 60 µM in the experiment with CEM-TK(-) [1], 68 µM with CEM-SS [6], > 100 µM in the experiment on MT4 [7] and 22 µM in experiment [11]. Moreover, the EC50 in the experiment on CEM-TK(-) [2] was 0.012 µM; in the experiment on CEM-SS [5] it was 0.006 µM; in the experiment with MT4 [8], 0.016 µM; in experiment [10], 0.007 µM. In the experiment with MT4 [9], this molecule displayed a Reduction of 19%.
